What follows are compounds tested on Ramos B-Cell Line Stimulated with IL-4 (assay: Assay for Ramos B-Cell Line Stimulated with IL-4 (CD23 upregulation, FACS; Example 2)). Details: human Ramos B cells, IL-4 50 units/mL for 20-24 hours, anti-CD23-PE.
Type: cell-based
Description: One means of assaying for such inhibition is detection of the effect of the 2,4-pyrimidinediamine compounds on the upregulation of downstream gene products. In the Ramos/IL4 assay, B-cells are stimulated with the cytokine Interleukin-4 (IL-4) leading to the activation of the JAK/Stat pathway through phosphorylation of the JAK family kinases, JAK1 and JAK3, which in turn phosphorylate and activate the transcription factor Stat-6. […] To study the effect of inhibitors (e.g., the 2,4-substituted pyrimindinediamine compounds described herein) on the JAK1 and JAK3 kinases, human Ramos B cells are stimulated with human IL-4. 20 to 24 hours post stimulation, cells are stained for upregulation of CD23 and analyzed using flow cytometry (FACS). […] An exemplary assay of this type is described in greater detail in Example 2.
B-cells stimulated with cytokine Interleukin-4 (IL-4) activate the JAK/Stat pathway through phosphorylation of the JAK family kinases, JAK-1 and JAK-3, which in turn phosphorylate and activate the transcription factor Stat-6. […] To study the effect of inhibitors on the JAK family kinases, human Ramos B cells are stimulated with human IL-4.
The Ramos B-cell line was acquired from ATCC (ATCC Catalog No. CRL-1596). The cells were cultured in RPMI 1640 (Cellgro, MediaTech, Inc., Herndon, Va., Cat No. 10-040-CM) with 10% fetal bovine serum (FBS), heat inactivated (JRH Biosciences, Inc, Lenexa, Kans., Cat No. 12106-500M) according to ATCC propagation protocol. Cells were maintained at a density of 3.5×10^5. The day before the experiment, Ramos B-cells were diluted to 3.5×10^5 cells/mL to ensure that they were in a logarithmic growth phase.
Cells were spun down and suspended in RPMI with 5% serum. 5×10^4 cells were used per point in a 96-well tissue culture plate. Cells were pre-incubated with compound or DMSO (Sigma-Aldrich, St. Louis, Mo., Cat No. D2650) vehicle control for 1 hour in a 37° C. incubator.
Cells were then stimulated with IL-4 (Peprotech Inc., Rocky Hill, N.J., Cat No. 200-04) for a final concentration of 50 units/mL for 20-24 hours. Cells were then spun down and stained with anti-CD23-PE (BD Pharmingen, San Diego, Calif., Cat No. 555711) and analyzed by FACS. Detection was performed using a BD LSR I System Flow Cytometer, purchased from Becton Dickinson Biosciences of San Jose, Calif.

Row | Compound | IC50
1 | COc1ccc(Nc2ncc(F)c(Nc3ccc(CNS(=O)(=O)C4CC4)cc3)n2)cc1Cl [II-3, N2-(3-chloro-4-methoxy)phenyl-N4-(4-cyclopropylsulfonylaminomethyl)phenyl-5-fluoro-2,4-pyrimidinediamine] | 0.116 µM
2 | Cc1cnc(Nc2cccc(C(N)=O)c2)nc1Nc1ccc(CNS(=O)(=O)C2CC2)c(Cl)c1 [II-18, N2-(3-aminocarbonyl)phenyl-N4-(3-chloro-4-cyclopropylsulfonylaminomethyl)phenyl-5-methyl-2,4-pyrimidinediamine] | 0.279 µM
3 | C#CCNS(=O)(=O)c1cccc(Nc2nc(Nc3cc(C)c(OC)c(C)c3)ncc2F)c1 [I-4, N2-(3,5-Dimethyl-4-methoxyphenyl)-5-fluoro-N4-[3-(prop-2-ynylaminosulfonyl)phenyl]-2,4-pyrimidinediamine] | 0.0955 µM
4 | O=S(=O)(NC1CC1)c1ccc(Nc2nc(Nc3ccc(OCc4cccnc4)cc3)ncc2C(F)(F)F)cc1 [I-13, N4-[4-N—(Cyclopropyl)aminosulfonylphenyl]-N2-[4-(3-pyridinyl)methyleneoxyphenyl]-5-trifluoromethyl-2,4-pyrimidinediamine] | 0.549 µM
5 | C#CCOc1ccc(Nc2ncc(C(F)(F)F)c(Nc3ccc(C)c(S(N)(=O)=O)c3)n2)cc1 [I-3, N4-(3-Aminosulfonyl-4-methylphenyl)-N2-[4-(prop-2-ynyloxy)phenyl]-5-trifluoromethyl-2,4-pyrimidinediamine] | 0.153 µM
6 | COc1cccc(N(C)c2ncc(N)c(Nc3ccc(S(N)(=O)=O)cc3)n2)c1 [I-11, 5-Amino-N4-(4-aminosulfonylphenyl)-N2-(3-methoxyphenyl)-N2-methyl-2,4-pyrimidinediamine] | 15.9 µM
7 | Cc1cnc(Nc2ccc(C#N)cc2)nc1Nc1ccc(CN(C)S(=O)(=O)C2CC2)cc1 [II-27, N2-(4-cyano)phenyl-N4-[4-(N-cyclopropylsulfonyl-N-methyl)aminomethyl]phenyl-5-methyl-2,4-pyrimidinediamine] | 89.2 µM
8 | NS(=O)(=O)c1cccc(Nc2nc(Nc3ccc(OCc4ccccn4)cc3)ncc2C(F)(F)F)c1 [I-12, N4-(3-Aminosulfonylphenyl)-N2-[4-(2-pyridinyl)methyleneoxyphenyl]-5-trifluoromethyl-2,4-pyrimidinediamine] | 1.11 µM
9 | C#CCNS(=O)(=O)c1ccc(Nc2nc(Nc3cc(C)c(OC)c(C)c3)ncc2F)cc1 [I-5, N2-(3,5-Dimethyl-4-methoxyphenyl)-5-fluoro-N4-[4-(prop-2-ynylaminosulfonyl)phenyl]-2,4-pyrimidinediamine] | 0.0316 µM
10 | COc1ccc(N(C)c2ncc(N)c(Nc3ccc(S(N)(=O)=O)cc3)n2)cc1 [I-9, 5-Amino-N4-(4-aminosulfonylphenyl)-N2-(4-methoxyphenyl)-N2-methyl-2,4-pyrimidinediamine] | 99.6 µM

Results, then the compound that gave them:

Row | IC50 | Compound
11 | 0.0747 µM | Cc1cnc(Nc2ccc3[nH]cnc3c2)nc1Nc1ccc(CNS(=O)(=O)C2CC2)cc1 [IV-1, N2-(benzoimidazol-5-yl)-N4-(4-cyclopropylsulfonylaminomethyl)phenyl-5-methyl-2,4-pyrimidinediamine]
12 | 0.207 µM | Cc1cnc(Nc2ccc3[nH]c(CN4CCOCC4)nc3c2)nc1Nc1ccc(CNS(=O)(=O)C2CC2)cc1 [IV-6, N4-(4-cyclopropylsulfonylaminomethyl)phenyl-5-methyl-N2-[2-(morpholin-4-yl)methylbenzoimidazol-5-yl]-2,4-pyrimidinediamine]
13 | 0.044 µM | Cc1cnc(Nc2ccc3[nH]c(C(F)(F)F)nc3c2)nc1Nc1ccc(CNS(=O)(=O)C2CC2)cc1 [IV-2, N4-(4-cyclopropylsulfonylaminomethyl)phenyl-5-methyl-N2-(2-trifluoromethylbenzoimidazol-5-yl)-2,4-pyrimidinediamine]
14 | 0.401 µM | COc1cc(Nc2ncc(C)c(Nc3ccc4c(c3)C(NS(C)(=O)=O)CC4)n2)cc(OC)c1OC (racemic) [V-1, (+/−)-5-Methyl-N4-[1-(methylsulfonylamino)indan-6-yl]-N2-(3,4,5-trimethoxyphenyl)-2,4-pyrimidinediamine]
15 | 0.349 µM | Cc1nc2ccc(Nc3ncc(F)c(Nc4ccc5c(c4)CCN5S(C)(=O)=O)n3)cc2[nH]1 [VIII-6, 5-Fluoro-N4-[(1-methylsulfonyl)indolin-5-yl]-N2-(2-methylbenzimidazol-5-yl)-2,4-pyrimidinediamine]
16 | 0.257 µM | Cc1cnc(Nc2ccc3c(c2)ncn3CCO)nc1Nc1ccc(CNS(=O)(=O)C2CC2)cc1 [IV-8, N4-(4-cyclopropylsulfonylaminomethyl)phenyl-N2-[1-(2-hydroxyethyl)benzoimidazol-5-yl]-5-methyl-2,4-pyrimidinediamine]
17 | 0.0873 µM | Cc1cnc(Nc2ccc3[nH]c(-c4cccs4)nc3c2)nc1Nc1ccc(CNS(=O)(=O)C2CC2)cc1 [IV-5, N4-(4-cyclopropylsulfonylaminomethyl)phenyl-5-methyl-N2-[2-(thien-2-yl)benzoimidazol-5-yl]-2,4-pyrimidinediamine]

What follows are compounds tested on BaF3 V617F cells; UKE-1 (assay: Proliferation Assay (Cell Titer-Glo; Example 7)). Details: proliferation 72 hours, inhibit JAK2 activity, cell line (BaF3 V617F or UKE-1) not stated.
Type: cell-based
In short: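 Proliferation IC50s reflect 72 h compound exposure at 37 °C, read by Cell Titer-Glo luminescence. Compound was serially diluted 3-fold from a 5 mM DMSO stock and added as a 2× solution; BaF3 V617F cells were grown in RPMI/10% FBS, UKE-1 in Iscove's DMEM with FBS, equine serum and hydrocortisone.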

Row | IC50 | Compound
18 | 0.14 µM | CCNS(=O)(=O)NCc1cccc(Nc2nc(Nc3cc(C)c(OCC)c(C)c3)ncc2Cl)c1 [II-130, 5-Chloro-N2-(3,5-dimethyl-4-ethoxyphenyl)-N4-[(3-(ethylamino)sulfonylamino)methylphenyl]-2,4-pyrimidinediamine]
19 | 0.276 µM | COc1cc(Nc2ncc(Cl)c(Nc3ccc(CNS(=O)(=O)C4CC4)cc3)n2)cc(Cl)c1OC [II-200, 5-Chloro-N4-[4-(N-cyclopropylsulfonylamino)methylphenyl]-N2-[3,4-dimethoxy-5-chlorophenyl]-2,4-pyrimidinediamine]
20 | 0.128 µM | COc1cc(Nc2ncc(Cl)c(Nc3ccc(CNS(=O)(=O)C4CC4)cc3)n2)cc(OC)c1OC [II-186, 5-Chloro-N4-[4-(N-cyclopropylsulfonylaminomethyl)phenyl]-N2-[3,4,5-trimethoxyphenyl]-2,4-pyrimidinediamine]
21 | 0.673 µM | COc1c(C)cc(Nc2ncc(C)c(Nc3ccc4c(c3)[C@H](NS(C)(=O)=O)CC4)n2)cc1C [V-10]
22 | 2.05 µM | Cc1cc(Nc2ncc(Cl)c(Nc3ccc(CNS(=O)(=O)NC4CC4)cc3)n2)ccc1N1CCN(C)CC1 [II-168, 5-Chloro-N4-[4-((N-cyclopropylamino)sulfonylamino)methylphenyl]-N2-[3-methyl-4-(4-methyl-1-piperazinyl)phenyl]-2,4-pyrimidinediamine]
23 | 1.49 µM | CCN1CCN(c2ccc(Nc3ncc(C)c(Nc4ccc(CCNS(=O)(=O)C5CC5)cc4)n3)c(C(F)(F)F)c2)CC1 [II-74]
24 | 0.597 µM | COc1cc(Nc2ncc(F)c(Nc3ccc(CNS(=O)(=O)C4CC4)cc3)n2)cc(Cl)c1OC [II-196, 5-Fluoro-N4-[4-(N-cyclopropylsulfonylamino)methylphenyl]-N2-[3,4-dimethoxy-5-chlorophenyl]-2,4-pyrimidinediamine]
25 | 0.348 µM | CN1CCN(c2ccc(Nc3ncc(Cl)c(Nc4ccc(CNS(=O)(=O)NC5CC5)cc4)n3)cn2)CC1 [II-169, 5-Chloro-N4-[4-((N-cyclopropylamino)sulfonylamino)methylphenyl]-N2-[6-(4-methyl-1-piperazinyl)-3-pyridinyl]-2,4-pyrimidinediamine]
26 | 4.33 µM | Cc1cc(CNS(=O)(=O)NC2CC2)ccc1Nc1nc(Nc2ccc(N3CCN(C)CC3)c(C)c2)ncc1Cl [II-181, 5-Chloro-N4-[2-methyl-4-((N-cyclopropylamino)sulfonylamino)methylphenyl]-N2-[3-methyl-4-(4-methyl-1-piperazinyl)phenyl]-2,4-pyrimidinediamine]

Reference: patent US8304422B2, “Compositions and methods for inhibition of the JAK pathway” (Rigel Pharmaceuticals, Inc., priority 2007, dated 2012)
